Earlier results, collected in US20080063781A1, “Globin Digest Containing, Yeast-Fermented Beverages” (Suntory Limited, priority 2004, published 2008).

System: serum triglyceride levels
Conditions: reported in JP 9-255698 A

Substance	suppressive activity against the elevation of serum triglyceride levels
Val-Thr-Leu [VTL]	strong suppressive activity against the elevation of serum triglyceride levels
Val-Val-Tyr-Pro (VVYP; printed: Val-Val-Tyr-Pro)	strong suppressive activity against the elevation of serum triglyceride levels
